The Km is the substrate concentration at which the rate is half of its maximum.

Data on eight molecules can be found in ChEMBL document CHEMBL2074199, “The MRP4/ABCC4 gene encodes a novel apical organic anion transporter in human kidney proximal tubules: putative efflux pump for urinary cAMP and cGMP” (J Am Soc Nephrol, 2002).

Common to all, as to assay type: functional, cell membranes, Membrane vesicle
Data set [1] deals with T1, MRP4 (ABCC4) (Homo sapiens, UniProt O15439).
T1 sequence (O15439 whole entry): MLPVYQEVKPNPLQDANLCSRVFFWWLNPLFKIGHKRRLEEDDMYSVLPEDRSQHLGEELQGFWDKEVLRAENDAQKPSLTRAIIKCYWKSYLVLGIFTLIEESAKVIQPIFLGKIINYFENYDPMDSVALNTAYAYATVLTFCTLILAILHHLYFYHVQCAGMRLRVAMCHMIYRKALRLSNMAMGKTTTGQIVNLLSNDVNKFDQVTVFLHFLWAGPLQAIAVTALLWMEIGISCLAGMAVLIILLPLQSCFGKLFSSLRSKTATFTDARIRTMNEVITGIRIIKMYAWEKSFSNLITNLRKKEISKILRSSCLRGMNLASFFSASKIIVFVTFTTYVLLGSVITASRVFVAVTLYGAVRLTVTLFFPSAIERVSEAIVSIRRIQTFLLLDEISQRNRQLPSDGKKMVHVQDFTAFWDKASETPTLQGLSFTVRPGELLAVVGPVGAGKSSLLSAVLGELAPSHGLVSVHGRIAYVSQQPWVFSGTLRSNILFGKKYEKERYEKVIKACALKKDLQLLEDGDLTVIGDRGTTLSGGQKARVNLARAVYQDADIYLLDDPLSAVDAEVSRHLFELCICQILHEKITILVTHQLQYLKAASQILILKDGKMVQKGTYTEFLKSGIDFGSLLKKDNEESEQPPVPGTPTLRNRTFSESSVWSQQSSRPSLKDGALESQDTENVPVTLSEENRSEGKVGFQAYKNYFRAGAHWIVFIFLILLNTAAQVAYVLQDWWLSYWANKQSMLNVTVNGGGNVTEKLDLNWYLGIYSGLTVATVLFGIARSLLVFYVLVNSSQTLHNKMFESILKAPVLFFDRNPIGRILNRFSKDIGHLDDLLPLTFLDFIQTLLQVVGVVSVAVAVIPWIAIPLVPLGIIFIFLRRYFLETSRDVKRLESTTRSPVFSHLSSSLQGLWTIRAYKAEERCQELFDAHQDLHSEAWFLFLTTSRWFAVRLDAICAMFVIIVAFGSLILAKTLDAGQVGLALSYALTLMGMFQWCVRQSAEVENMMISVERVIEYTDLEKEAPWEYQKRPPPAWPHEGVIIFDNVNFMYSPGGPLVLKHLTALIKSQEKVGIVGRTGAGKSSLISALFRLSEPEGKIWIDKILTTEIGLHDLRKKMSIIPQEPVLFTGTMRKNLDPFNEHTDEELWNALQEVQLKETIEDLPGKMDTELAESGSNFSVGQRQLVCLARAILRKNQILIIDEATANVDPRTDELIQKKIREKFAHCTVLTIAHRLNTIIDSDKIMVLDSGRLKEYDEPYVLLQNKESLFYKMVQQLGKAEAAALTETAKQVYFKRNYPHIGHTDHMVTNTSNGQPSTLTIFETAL
Nature of the data set: TP_TRANSPORTER: inhibition of MTX uptake (MTX: 0.1 uM, NAc-DNP-Cys: 100 uM) in membrane vesicles from MRP4-expressing Sf9 cells. On the set-up: scale not given: the % may be the effect or the level left. Particulars: probe methotrexate 0.1 uM, read-out: Activity.

In data set [2] the target is T1, MRP4 (ABCC4). Nature of the data set: TP_TRANSPORTER: inhibition of MTX uptake (MTX: 0.1 uM, p-Nitropenyl-beta-D-glucuronide: 1000 uM) in membrane vesicles from MRP4-expressing Sf9 cells. On the set-up: scale not given: the % may be the effect or the level left. Particulars: probe methotrexate 0.1 uM, read-out: Activity.
For data set [3], the target named is T1, MRP4 (ABCC4). Nature of the data set: TP_TRANSPORTER: inhibition of Methotrexate uptake (MTX: 0.1 uM, alpha-naphthyl beta-D-glucuronide: 1000 uM) in membrane vesicles from MRP4-expressing Sf9 cells. The arrangement: scale not given: the % may be the effect or the level left. Particulars: probe methotrexate 0.1 uM, read-out: Activity.
Data set [4] has as its target T2, ATP-binding cassette sub-family C member 4 (Homo sapiens, UniProt O15439).
T2 sequence (O15439 whole entry): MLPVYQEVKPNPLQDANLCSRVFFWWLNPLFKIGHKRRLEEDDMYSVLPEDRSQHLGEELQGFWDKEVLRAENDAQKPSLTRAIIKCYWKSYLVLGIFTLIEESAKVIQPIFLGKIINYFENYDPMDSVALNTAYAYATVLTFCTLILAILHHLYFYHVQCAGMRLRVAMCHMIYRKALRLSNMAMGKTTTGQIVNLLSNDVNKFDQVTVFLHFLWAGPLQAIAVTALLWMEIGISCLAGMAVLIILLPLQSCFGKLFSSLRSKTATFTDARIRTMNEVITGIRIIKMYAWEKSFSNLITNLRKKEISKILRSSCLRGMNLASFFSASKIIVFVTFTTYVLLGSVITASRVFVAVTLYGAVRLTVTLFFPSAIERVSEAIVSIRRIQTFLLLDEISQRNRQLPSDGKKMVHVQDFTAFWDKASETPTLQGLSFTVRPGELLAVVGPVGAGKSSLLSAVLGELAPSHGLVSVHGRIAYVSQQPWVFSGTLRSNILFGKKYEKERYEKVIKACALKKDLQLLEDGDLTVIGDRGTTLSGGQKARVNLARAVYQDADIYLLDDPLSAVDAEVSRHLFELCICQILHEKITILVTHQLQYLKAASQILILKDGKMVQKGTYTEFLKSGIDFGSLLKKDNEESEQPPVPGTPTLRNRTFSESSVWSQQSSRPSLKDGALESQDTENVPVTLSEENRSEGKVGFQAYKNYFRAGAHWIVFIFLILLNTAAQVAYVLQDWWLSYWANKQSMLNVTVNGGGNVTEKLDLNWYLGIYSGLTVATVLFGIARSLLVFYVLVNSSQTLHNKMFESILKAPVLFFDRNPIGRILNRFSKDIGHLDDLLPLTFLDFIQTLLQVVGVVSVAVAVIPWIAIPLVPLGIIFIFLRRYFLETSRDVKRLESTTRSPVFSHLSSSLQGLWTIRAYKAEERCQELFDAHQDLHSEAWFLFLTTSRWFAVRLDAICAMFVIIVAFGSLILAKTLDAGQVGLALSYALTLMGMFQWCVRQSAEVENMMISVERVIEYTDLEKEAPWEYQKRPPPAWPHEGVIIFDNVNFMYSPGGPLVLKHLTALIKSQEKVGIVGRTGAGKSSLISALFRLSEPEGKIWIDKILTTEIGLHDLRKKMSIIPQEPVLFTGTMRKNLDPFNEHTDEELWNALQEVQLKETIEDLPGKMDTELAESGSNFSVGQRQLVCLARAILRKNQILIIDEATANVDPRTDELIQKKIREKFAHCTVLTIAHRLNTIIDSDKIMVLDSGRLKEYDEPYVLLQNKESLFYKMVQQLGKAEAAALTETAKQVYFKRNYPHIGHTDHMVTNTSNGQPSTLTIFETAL
Nature of the data set: TP_TRANSPORTER: inhibition of cGMP uptake ([…]: 1 uM, Dipyridamole: 1 uM) in membrane vesicles from MRP4-expressing Sf9 cells. On the set-up: scale not given: the % may be the effect or the level left. Particulars: sf9, 1 µM.

Data set [5] addresses T2, ATP-binding cassette sub-family C member 4. Nature of the data set: TP_TRANSPORTER: inhibition of cGMP uptake ([…]: 1 uM, Probenecid: 1000 uM) in membrane vesicles from MRP4-expressing Sf9 cells. The arrangement: scale not given: the % may be the effect or the level left. Particulars: sf9, 1000 µM.
Data set [6] deals with T1, MRP4 (ABCC4). The experiment in a line: TP_TRANSPORTER: inhibition of MTX uptake (MTX: 0.1 uM, E217betaG: 100 uM) in membrane vesicles from MRP4-expressing Sf9 cells. On the set-up: scale not given: the % may be the effect or the level left. Particulars: probe methotrexate 0.1 uM, read-out: Activity.
For data set [7], the target named is T1, MRP4 (ABCC4). Nature of the data set: TP_TRANSPORTER: inhibition of Methotrexate uptake (MTX: 0.1 uM, DNP-SG: 100 uM) in membrane vesicles from MRP4-expressing Sf9 cells. On the set-up: scale not given: the % may be the effect or the level left. The settings on record: probe methotrexate 0.1 uM, read-out: Activity.
Substrate in data set [8]: CN(Cc1cnc2nc(N)nc(N)c2n1)c1ccc(C(=O)N[C@@H](CCC(=O)O)C(=O)O)cc1
Nature of the data set: TP_TRANSPORTER: uptake in membrane vesicles from MRP4-expressing Sf9 cells.

For the molecule `CC(=O)N[C@@H](CSc1ccc([N+](=O)[O-])cc1[N+](=O)[O-])C(=O)O`, the activity at 100 µM on MRP4 (ABCC4) [1] stood at 29%.

Turning to `O=C(O)[C@H]1O[C@@H](Oc2ccc([N+](=O)[O-])cc2)[C@H](O)[C@@H](O)[C@@H]1O`, the activity at 1000 µM on MRP4 (ABCC4) [2] is 25%.

Regarding `O=C(O)[C@H]1O[C@@H](Oc2cccc3ccccc23)[C@H](O)[C@@H](O)[C@@H]1O`, the activity at 1000 µM at MRP4 (ABCC4) [3] is 18%.

In data set [4], `OCCN(CCO)c1nc(N2CCCCC2)c2nc(N(CCO)CCO)nc(N3CCCCC3)c2n1` [DIPYRIDAMOLE] registered an Activity of 9%.

`CCCN(CCC)S(=O)(=O)c1ccc(C(=O)O)cc1` [PROBENECID] came in with an Activity in data set [5] of 10%.

Turning to `C[C@]12CC[C@@H]3c4ccc(O)cc4CC[C@H]3[C@@H]1CC[C@@H]2O[C@@H]1O[C@H](C(=O)O)[C@@H](O)[C@H](O)[C@H]1O` [ESTRADIOL 17B GLUCURONIDE], on MRP4 (ABCC4) [6], the activity at 100 µM amounted to 75%.

Take `N[C@@H](CCC(=O)N[C@H](CSc1ccc([N+](=O)[O-])cc1[N+](=O)[O-])C(=O)NCC(=O)O)C(=O)O`: on MRP4 (ABCC4) [7], the activity at 100 µM amounted to 3%.

B1: ATP-binding cassette sub-family C member 4 (Homo sapiens) (protein)
chain: MLPVYQEVKPNPLQDANLCSRVFFWWLNPLFKIGHKRRLEEDDMYSVLPEDRSQHLGEELQGFWDKEVLRAENDAQKPSLTRAIIKCYWKSYLVLGIFTLIEESAKVIQPIFLGKIINYFENYDPMDSVALNTAYAYATVLTFCTLILAILHHLYFYHVQCAGMRLRVAMCHMIYRKALRLSNMAMGKTTTGQIVNLLSNDVNKFDQVTVFLHFLWAGPLQAIAVTALLWMEIGISCLAGMAVLIILLPLQSCFGKLFSSLRSKTATFTDARIRTMNEVITGIRIIKMYAWEKSFSNLITNLRKKEISKILRSSCLRGMNLASFFSASKIIVFVTFTTYVLLGSVITASRVFVAVTLYGAVRLTVTLFFPSAIERVSEAIVSIRRIQTFLLLDEISQRNRQLPSDGKKMVHVQDFTAFWDKASETPTLQGLSFTVRPGELLAVVGPVGAGKSSLLSAVLGELAPSHGLVSVHGRIAYVSQQPWVFSGTLRSNILFGKKYEKERYEKVIKACALKKDLQLLEDGDLTVIGDRGTTLSGGQKARVNLARAVYQDADIYLLDDPLSAVDAEVSRHLFELCICQILHEKITILVTHQLQYLKAASQILILKDGKMVQKGTYTEFLKSGIDFGSLLKKDNEESEQPPVPGTPTLRNRTFSESSVWSQQSSRPSLKDGALESQDTENVPVTLSEENRSEGKVGFQAYKNYFRAGAHWIVFIFLILLNTAAQVAYVLQDWWLSYWANKQSMLNVTVNGGGNVTEKLDLNWYLGIYSGLTVATVLFGIARSLLVFYVLVNSSQTLHNKMFESILKAPVLFFDRNPIGRILNRFSKDIGHLDDLLPLTFLDFIQTLLQVVGVVSVAVAVIPWIAIPLVPLGIIFIFLRRYFLETSRDVKRLESTTRSPVFSHLSSSLQGLWTIRAYKAEERCQELFDAHQDLHSEAWFLFLTTSRWFAVRLDAICAMFVIIVAFGSLILAKTLDAGQVGLALSYALTLMGMFQWCVRQSAEVENMMISVERVIEYTDLEKEAPWEYQKRPPPAWPHEGVIIFDNVNFMYSPGGPLVLKHLTALIKSQEKVGIVGRTGAGKSSLISALFRLSEPEGKIWIDKILTTEIGLHDLRKKMSIIPQEPVLFTGTMRKNLDPFNEHTDEELWNALQEVQLKETIEDLPGKMDTELAESGSNFSVGQRQLVCLARAILRKNQILIIDEATANVDPRTDELIQKKIREKFAHCTVLTIAHRLNTIIDSDKIMVLDSGRLKEYDEPYVLLQNKESLFYKMVQQLGKAEAAALTETAKQVYFKRNYPHIGHTDHMVTNTSNGQPSTLTIFETAL
With B1, the Michaelis constant (Km) in data set [8] came to 1300 µM.
